{"source": "patent US11214594B2", "about": "“Antimicrobial peptide having synergistic antibacterial effect with antibiotics on multidrug resistant bacteria, and use thereof” (priority 2016, dated 2022)", "key": {"[1]": {"system": "MDREC 1229", "assay": "microbe, parasite or virus in culture", "assay_type": "cell-based, Escherichia coli", "how_it_was_run": "(§1)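 Each strain is brought to 2×10^6 CFU in nutrient-sufficient Mueller-Hinton medium and dispensed into wells. Peptide solutions, stepwise diluted 2:1 in the same medium, are then added. The minimal concentration preventing growth gives the MIC.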"}, "[2]": {"system": "S. epidermidis", "assay": "microbe, parasite or virus in culture", "assay_type": "cell-based, Staphylococcus epidermidis", "how_it_was_run": "as §1"}, "[3]": {"system": "S. aureus", "assay": "microbe, parasite or virus in culture", "assay_type": "cell-based, Staphylococcus aureus", "how_it_was_run": "as §1"}, "[4]": {"system": "E. coli", "assay": "MIC of antibiotic during combined treatment with antimicrobial peptide", "assay_type": "cell-based, Escherichia coli", "conditions": "for Antibiotic MIC, Erythromycin / Antibiotic MIC, Linezolid / Antibiotic MIC, Vancomycin: E. coli", "how_it_was_run": "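Checkerboard-type MIC of peptide–antibiotic mixtures in MH medium: the antibiotic was serially diluted in MH medium and added to wells, then the reversed arrangement was also tested.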"}, "[5]": {"system": "E. coli", "assay_type": "cell-based, Escherichia coli", "conditions": "E. coli", "how_it_was_run": "(§2)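 Strains in MH medium at 2×10^6 CFU/ml were mixed with peptide diluted stepwise (2:1) from its MIC, then antibiotic dilutions in MH medium were added to give the antibiotic MIC. The reversed set-up, peptide titrated against fixed antibiotic, gave the peptide MIC.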"}, "[6]": {"system": "MDREC 1229", "assay_type": "cell-based, Escherichia coli", "how_it_was_run": "as §2"}, "[7]": {"system": "MDRAB 12035", "assay": "microbe, parasite or virus in culture", "assay_type": "cell-based, Acinetobacter baumannii", "how_it_was_run": "as §1"}, "[8]": {"system": "A. baumannii", "assay": "microbe, parasite or virus in culture", "assay_type": "cell-based, Acinetobacter baumannii", "how_it_was_run": "as §1"}, "[9]": {"system": "P. aeruginosa", "assay": "microbe, parasite or virus in culture", "assay_type": "cell-based, Pseudomonas aeruginosa", "how_it_was_run": "as §1"}, "[10]": {"system": "MDRST 8009", "assay_type": "cell-based, Salmonella typhimurium", "conditions": "agent alone", "how_it_was_run": "as §1"}}, "note": "Read-outs that look alike come from different tables or passages of the source. Where a SMILES comes first, the peptide text is derived from it. [ ]: non-standard residue; d: D form.", "data": [{"smiles": "CC[C@H](C)[C@H](NC(=O)[C@H](CCCCN)NC(=O)[C@H](Cc1c[nH]c2ccccc12)NC(=O)[C@@H](N)CCCNC(=N)N)C(=O)N[C@@H](Cc1ccccc1)C(=O)N[C@@H](CCCCN)C(=O)N[C@@H](CCCCN)C(=O)N[C@H](C(=O)N[C@H](CCCCN)C(=O)N[C@@H](CCCCN)C(=O)N[C@@H](CC(C)C)C(=O)N[C@@H](CC(C)C)C(=O)N[C@@H](Cc1c[nH]cn1)C(=O)N[C@@H](CCC(=O)O)C(=O)N[C@@H](C)C(=O)N[C@@H](CCCCN)C(=O)N[C@@H](CCCCN)C(=O)N[C@@H](Cc1c[nH]c2ccccc12)C(N)=O)[C@@H](C)CC", "note": "[PapMA-20, RWK IFK KIk KLL HEA KKW-NH2] (H-RWKIFKKI[dK]KLLHEAKKW-NH2; N-terminus assumed)", "values": [{"measurement": "Minimal inhibitory concentration MIC", "setting": "[1]", "result": 16, "unit": "µg/mL"}, {"measurement": "Peptide MIC, peptide alone", "setting": "[1]", "result": 16, "unit": "µg/mL"}, {"measurement": "Minimal inhibitory concentration MIC", "setting": "[2]", "result": ">128", "unit": "µg/mL"}, {"measurement": "Minimal inhibitory concentration MIC", "setting": "[3]", "result": ">128", "unit": "µg/mL"}, {"measurement": "Synergistic effect of antibacterial activity with existing antibiotics compared with PapMA-1", "setting": "[4]; E. coli and MDREC1229", "result": "higher level than the PapMA-1 peptide"}, {"measurement": "Antibiotic MIC, Erythromycin", "setting": "[4]; erythromycin combined with peptide at 1 μg/ml", "result": 64, "unit": "µg/mL"}, {"measurement": "Antibiotic MIC, Erythromycin", "setting": "[4]; erythromycin combined with peptide at 2 μg/ml", "result": 32, "unit": "µg/mL"}, {"measurement": "Antibiotic MIC, Erythromycin", "setting": "[4]; erythromycin combined with peptide at 4 μg/ml", "result": 8, "unit": "µg/mL"}, {"measurement": "Antibiotic MIC, Erythromycin", "setting": "[4]; erythromycin combined with peptide at 6 μg/ml", "result": 1, "unit": "µg/mL"}, {"measurement": "Antibiotic MIC, Erythromycin", "setting": "[4]; erythromycin combined with peptide at 8 μg/ml", "result": 0.5, "unit": "µg/mL"}, {"measurement": "Antibiotic MIC, Erythromycin", "setting": "[4]; erythromycin combined with peptide at 16 μg/ml", "result": 0, "unit": "µg/mL"}, {"measurement": "Antibiotic MIC, Erythromycin", "setting": "[4]; erythromycin combined with peptide at 32 μg/ml", "result": 0, "unit": "µg/mL"}, {"measurement": "Antibiotic MIC, Erythromycin", "setting": "[4]; erythromycin combined with peptide at 64 μg/ml", "result": 0, "unit": "µg/mL"}, {"measurement": "Antibiotic MIC, Linezolid", "setting": "[4]; linezolid combined with peptide at 1 μg/ml", "result": ">128", "unit": "µg/mL"}, {"measurement": "Antibiotic MIC, Linezolid", "setting": "[4]; linezolid combined with peptide at 2 μg/ml", "result": 64, "unit": "µg/mL"}, {"measurement": "Antibiotic MIC, Linezolid", "setting": "[4]; linezolid combined with peptide at 4 μg/ml", "result": 16, "unit": "µg/mL"}, {"measurement": "Antibiotic MIC, Linezolid", "setting": "[4]; linezolid combined with peptide at 6 μg/ml", "result": 8, "unit": "µg/mL"}, {"measurement": "Antibiotic MIC, Linezolid", "setting": "[4]; linezolid combined with peptide at 8 μg/ml", "result": 4, "unit": "µg/mL"}, {"measurement": "Antibiotic MIC, Linezolid", "setting": "[4]; linezolid combined with peptide at 16 μg/ml", "result": 0, "unit": "µg/mL"}, {"measurement": "Antibiotic MIC, Linezolid", "setting": "[4]; linezolid combined with peptide at 32 μg/ml", "result": 0, "unit": "µg/mL"}, {"measurement": "Antibiotic MIC, Linezolid", "setting": "[4]; linezolid combined with peptide at 64 μg/ml", "result": 0, "unit": "µg/mL"}, {"measurement": "Antibiotic MIC, Vancomycin", "setting": "[4]; vancomycin combined with peptide at 1 μg/ml", "result": ">128", "unit": "µg/mL"}, {"measurement": "Antibiotic MIC, Vancomycin", "setting": "[4]; vancomycin combined with peptide at 2 μg/ml", "result": ">128", "unit": "µg/mL"}, {"measurement": "Antibiotic MIC, Vancomycin", "setting": "[4]; vancomycin combined with peptide at 4 μg/ml", "result": 64, "unit": "µg/mL"}, {"measurement": "Antibiotic MIC, Vancomycin", "setting": "[4]; vancomycin combined with peptide at 6 μg/ml", "result": 16, "unit": "µg/mL"}, {"measurement": "Antibiotic MIC, Vancomycin", "setting": "[4]; vancomycin combined with peptide at 8 μg/ml", "result": 8, "unit": "µg/mL"}, {"measurement": "Antibiotic MIC, Vancomycin", "setting": "[4]; vancomycin combined with peptide at 16 μg/ml", "result": 0, "unit": "µg/mL"}, {"measurement": "Antibiotic MIC, Vancomycin", "setting": "[4]; vancomycin combined with peptide at 32 μg/ml", "result": 0, "unit": "µg/mL"}, {"measurement": "Antibiotic MIC, Vancomycin", "setting": "[4]; vancomycin combined with peptide at 64 μg/ml", "result": 0, "unit": "µg/mL"}, {"measurement": "Peptide MIC", "setting": "[5]; with Erythromycin […] (Conc./MIC 1)", "result": 0, "unit": "µg/mL"}, {"measurement": "Peptide MIC", "setting": "[5]; with Linezolid […] (Conc./MIC 1)", "result": 0, "unit": "µg/mL"}, {"measurement": "Peptide MIC", "setting": "[5]; with Vancomycin 1024 μg/ml (Conc./MIC 1)", "result": 0, "unit": "µg/mL"}, {"measurement": "Peptide MIC during treatment with antibiotic", "setting": "[6]; erythromycin 32 μg/ml (Conc./MIC 1/8)", "result": 2, "unit": "µg/mL"}, {"measurement": "Peptide MIC during treatment with antibiotic", "setting": "[6]; erythromycin 64 μg/ml (Conc./MIC 1/4)", "result": 2, "unit": "µg/mL"}, {"measurement": "Peptide MIC during treatment with antibiotic", "setting": "[6]; erythromycin […] (Conc./MIC 1)", "result": 0, "unit": "µg/mL"}, {"measurement": "Peptide MIC during treatment with antibiotic", "setting": "[6]; erythromycin […] (Conc./MIC 1/2)", "result": 1, "unit": "µg/mL"}, {"measurement": "Peptide MIC during treatment with antibiotic", "setting": "[6]; linezolid 64 μg/ml (Conc./MIC 1/8)", "result": 2, "unit": "µg/mL"}, {"measurement": "Peptide MIC during treatment with antibiotic", "setting": "[6]; linezolid 512 μg/ml (Conc./MIC 1)", "result": 0, "unit": "µg/mL"}, {"measurement": "Peptide MIC during treatment with antibiotic", "setting": "[6]; linezolid […] (Conc./MIC 1/2)", "result": 1, "unit": "µg/mL"}, {"measurement": "Peptide MIC during treatment with antibiotic", "setting": "[6]; linezolid […] (Conc./MIC 1/4)", "result": 2, "unit": "µg/mL"}, {"measurement": "Peptide MIC during treatment with antibiotic", "setting": "[6]; vancomycin 512 μg/ml (Conc./MIC 1/2)", "result": 2, "unit": "µg/mL"}, {"measurement": "Peptide MIC during treatment with antibiotic", "setting": "[6]; vancomycin 1024 μg/ml (Conc./MIC 1)", "result": 1, "unit": "µg/mL"}, {"measurement": "Peptide MIC during treatment with antibiotic", "setting": "[6]; vancomycin […] (Conc./MIC 1/4)", "result": 4, "unit": "µg/mL"}, {"measurement": "Peptide MIC during treatment with antibiotic", "setting": "[6]; vancomycin […] (Conc./MIC 1/8)", "result": 4, "unit": "µg/mL"}, {"measurement": "Minimal inhibitory concentration MIC", "setting": "[7]", "result": 16, "unit": "µg/mL"}, {"measurement": "Peptide MIC, peptide alone", "setting": "[7]", "result": 16, "unit": "µg/mL"}, {"measurement": "Minimal inhibitory concentration MIC", "setting": "[8]", "result": 16, "unit": "µg/mL"}, {"measurement": "Peptide MIC, peptide alone", "setting": "[8]", "result": 16, "unit": "µg/mL"}, {"measurement": "Antibacterial activity relative to PapMA-1", "setting": "[8]; A. baumannii and S. typhimurium", "result": "at least twice as high"}, {"measurement": "Minimal inhibitory concentration MIC", "setting": "[9]", "result": 64, "unit": "µg/mL"}, {"measurement": "Minimal inhibitory concentration MIC", "setting": "[10]", "result": 64, "unit": "µg/mL"}]}]}
